Assay results taken from paper PMC12265377, “CC48 a new CB2R agonist/FAAH inhibitor dual drug blocks gastric cancer progression and overcomes paclitaxel resistance” (Journal of Experimental & Clinical Cancer Research : CR, 2025).
Where two headings read alike, the source gives them in different places.

Key:
P-gp = P-gp (Homo sapiens, UniProt P08183); test: P-gp interaction assay (Calcein-AM, MDCK-MDR1 cells)
Description: This experiment was carried out as described by Contino et al. with minor modifications. MDCK-MDR1 cells, stably overexpressing P-gp, (30.000 cells per well) were seeded into black CulturePlate96/wells plate with 100 µL medium and allowed to become confluent overnight. Each test compound solubilized in culture medium was added to cell monolayers, reaching the tested final concentrations (ranging from 0.1 to 100 µM). Each 96/wells plate was incubated at 37 °C for 30 min. […] Each well was washed 3 times with ice cold PBS. […] In these experimental conditions, Calcein cell accumulation in the absence and presence of tested compounds was evaluated and the fluorescence basal level was estimated in untreated cells. In treated wells the increase of fluorescence compared to basal level was measured. EC50 values were determined on the fluorescence increase percentage versus log [dose].

CB2R = tested on: CB2R; parameters: method as in PMID 7776818, PMID 10188977, PMID 36657299, PMID 20393015; settings: cited from earlier work
HGC27-R cells [1] = test: Muse Ki67 cell proliferation assay; format: cell-based, human; settings: for percentage of Ki67+ cells: combined with PTX (10 µM compound; 6 µM AM630)
Description: (§1) After the specified drug treatments, the cells were processed with the Muse Ki67 cell proliferation kit, which identified actively proliferating cells based on the expression of Ki67, a nuclear protein present in the active phases of the cell cycle (G1, S, G2, and M phases) and absent in the resting G0 phase. The Muse Ki67 Proliferation Assay was used with the Guava Muse Cell Analyzer according to the manufacturer’s instructions (Luminex Corporation, Austin, USA). Briefly, the cells were stained after fixation and permeabilization procedures, using Hu Ki67 or Hu IgG1 control fluorochrome-conjugated antibodies to distinguish Ki67(+) or Ki67(-) cells, respectively. The software provided the percentage of both Ki67(+) and Ki67(-) cells.

HGC27-S cells [2] = test: Migration (scratch) assay; format: cell-based, human; settings: scratch assay 24 h, 6 µM AM630, 10 µM others
Description: (§2) HGC27-S/R and AGS cells were grown until confluence. A scratch wound was generated with a pipette tip. […] Photographs were taken of each well immediately (T0) and at various times, T1 (9 h), T2 (24 h), and T3 (48 h), using a Leica DMRXA camera (Leica Microsystems, Milan, Italy). The images were analyzed using ImageJ Software (http://rsb.info.nih.gov/ij/). The distance that cells migrated through the scratch area was determined by measuring the wound width at T1, T2 and T3 and subtracting it from the wound width at the start (T0). The relative migration rate was calculated by setting the percentage of migration of the control cells at time T2 equal to 1 and comparing the percentage of migration of the cells after each drug treatment to this value. The results are representative of three independent experiments.

AGS cells [3] = test: Migration (scratch) assay; format: cell-based, human; settings: scratch assay 24 h, 6 µM AM630, 10 µM others
Description: as §2

HGC27-R cells [4] = test: Migration (scratch) assay; format: cell-based, human; settings: scratch assay 24 h, highest concentration
Description: as §2

HGC27-S cells [5] = test: ROS determination assay (DCF-DA); format: cell-based, human; settings: 1 µM, 48 h, vs untreated cells
Description: (§3) For ROS analysis the procedure described in [26] was adapted. […] After the incubation, all the samples were incubated for 30 minutes at 37°C in the dark with 50 µM 2’,7’-dichlorofluorescein diacetate, DCF-DA.
(§4) Cells were then washed, detached with trypsin/EDTA solution, centrifuged at 12,000 g for 10 min and re-suspended in1mL PBS. At least 10.000 total events were acquired using an Attune Nxt Acoustic Focusing Cytometer (Life Technologies Corporation) equipped with a blue laser (488 nm). Analysis was performed and data were visualized using Attune™ NxT v2.6 Software. The percentage of green fluorescent cells and the green fluorescence median were measured on a mono-parametric histogram based on DCF-DA fluorescence.

HGC27-R cells [6] = test: ROS determination assay (DCF-DA); format: cell-based, human; settings: 1 µM, 48 h, vs untreated cells
Description: as §3, §4

HGC27-S cells [7] = test: Muse Annexin V apoptosis assay; format: cell-based, human; settings: 48 h, 6 µM AM630, 10 µM others
Description: (§5) After the specified drug treatments, the cells were processed using the Muse Annexin V/Dead Cell Assay Kit (Luminex Corporation, Austin, USA) for quantitative analysis of live, early/ late apoptotic, and dead cells on a Muse Cell Analyzer. Briefly, the assay utilized Annexin V to detect phosphatidylserine on the external membrane of apoptotic cells. The fluorescent signal emitted by dye-conjugated antibodies was detected by flow cytometry technology (Muse Cell Analyzer, Luminex Corporation, Austin, USA). 7-Amino-Actinomycin D (7-AAD) dead cell marker was also used. The cells were then analyzed according to the user’s guide. […] After 48 h treatments the cells were processed according to the user’s guide and analyzed with the Muse caspase-3/7 kit (Millipore).The assay provides the relative percentage of living, early/late apoptotic or dead cells.

AGS cells [8] = test: Muse Annexin V apoptosis assay; format: cell-based, human; settings: 48 h, 6 µM AM630, 10 µM others
Description: as §5

AGS cells [9] = test: VEGFA in cell culture medium (ELISA); format: cell-based, human; settings: 10 µM, 48 h, untreated 8.3
Description: (§6) The amount of VEGFA secreted in the culture medium by HGC27-S/R and AGS treated cells was measured using a highly sensitive Enzyme-Linked Immunosorbent Assay (ELISA), Quantikine Kit ELISA (R&D Systems, Minneapolis, MN, USA), according to the manufacturer’s instructions. The measured values were normalized to the number of cells.

HGC27-R cells [10] = test: VEGFA in cell culture medium (ELISA); format: cell-based, human; settings: 10 µM, 48 h, untreated 10.5
Description: as §6

CB1R = settings: cited from earlier work
NCI-N87 cells = test: Muse Ki67 cell proliferation assay; format: cell-based, human
Description: as §1

[11] = read-out: P-gp activity, EC50, ± SEM, MDCK-MDR1 cells, Calcein-AM
[12] = NCI-N87, single treatment (10 µM compound; 2 nM PTX), control 78.2%
[13] = representative flow cytometry chart, 48 h, 10 µM CC48, PTX, single or combined as labelled

P-gp, sequence (P08183 whole entry): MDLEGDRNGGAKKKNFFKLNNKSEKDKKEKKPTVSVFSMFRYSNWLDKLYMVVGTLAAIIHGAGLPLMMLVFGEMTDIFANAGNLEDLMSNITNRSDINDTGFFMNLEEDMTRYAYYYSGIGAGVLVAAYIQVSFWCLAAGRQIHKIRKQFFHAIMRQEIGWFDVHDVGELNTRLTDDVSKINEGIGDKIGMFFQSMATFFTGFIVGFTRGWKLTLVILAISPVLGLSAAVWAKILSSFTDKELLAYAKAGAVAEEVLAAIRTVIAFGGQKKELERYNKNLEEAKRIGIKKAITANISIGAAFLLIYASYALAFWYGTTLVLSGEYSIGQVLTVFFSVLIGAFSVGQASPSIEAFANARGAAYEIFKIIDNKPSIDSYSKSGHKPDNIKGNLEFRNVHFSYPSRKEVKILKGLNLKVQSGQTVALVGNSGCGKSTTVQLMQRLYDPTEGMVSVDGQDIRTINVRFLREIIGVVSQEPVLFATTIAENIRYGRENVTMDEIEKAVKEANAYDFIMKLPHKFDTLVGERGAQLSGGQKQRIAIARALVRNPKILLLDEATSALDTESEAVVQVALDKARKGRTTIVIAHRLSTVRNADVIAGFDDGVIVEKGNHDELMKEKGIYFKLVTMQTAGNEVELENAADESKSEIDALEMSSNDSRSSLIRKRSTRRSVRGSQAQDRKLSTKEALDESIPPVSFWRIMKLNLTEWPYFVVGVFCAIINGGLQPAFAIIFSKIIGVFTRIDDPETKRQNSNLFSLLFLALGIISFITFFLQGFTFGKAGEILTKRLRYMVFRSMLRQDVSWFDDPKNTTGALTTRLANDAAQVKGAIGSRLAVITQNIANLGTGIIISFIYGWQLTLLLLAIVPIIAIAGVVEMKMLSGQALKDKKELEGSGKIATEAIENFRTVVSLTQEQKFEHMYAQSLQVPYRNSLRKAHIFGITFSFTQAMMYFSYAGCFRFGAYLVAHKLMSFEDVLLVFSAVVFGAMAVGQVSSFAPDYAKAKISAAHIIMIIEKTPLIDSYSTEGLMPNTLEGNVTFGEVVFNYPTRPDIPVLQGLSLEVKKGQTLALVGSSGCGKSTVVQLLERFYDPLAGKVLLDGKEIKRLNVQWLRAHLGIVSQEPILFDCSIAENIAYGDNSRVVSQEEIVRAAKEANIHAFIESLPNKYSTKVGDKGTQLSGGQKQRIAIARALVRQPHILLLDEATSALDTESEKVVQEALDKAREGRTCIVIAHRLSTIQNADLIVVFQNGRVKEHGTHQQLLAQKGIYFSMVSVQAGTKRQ

COc1ccc(C(=O)c2c(C)n(CCN3CCOCC3)c3cc(I)ccc23)cc1 [AM630, reference compound]
interaction with P-gp (in words) (P-gp; MDCK-MDR1 cells, Calcein-AM): low interaction with the pump
EC50 (P-gp; [11]): 16800 ± 3200 nM
EC50 (CB2R): 0.9 nM
percentage of Ki67+ cells (HGC27-R cells [1]): 51.3%
relative migration rate (untreated cells = 1) (HGC27-S cells [2]): 0.6
relative migration rate (untreated cells = 1) (AGS cells [3]): 0.7
relative migration rate (control cells = 1) (HGC27-R cells [4]): 0.2
intracellular ROS production (HGC27-S cells [5]): significant increase in intracellular ROS production
ROS production (HGC27-R cells [6]): induced an increase in ROS production
increase in apoptotic cells compared to untreated cells (Annexin V) (HGC27-S cells [7]): 8 fold
increase in apoptotic cells compared to untreated cells (Annexin V) (AGS cells [8]): 8 fold

CCCCCNc1ccccc1C(=O)NC12CC3CC(CC(C3)C1)C2 [ASF151]
interaction with P-gp (in words) (P-gp; MDCK-MDR1 cells, Calcein-AM): excluded interaction with P-gp
EC50 (P-gp; [11]): > 100000 nM
VEGFA secretion in culture medium (AGS cells [9]): 4.4 pg/mL/cell
VEGFA secretion in culture medium (HGC27-R cells [10]): 8 pg/mL/cell
CB1R affinity % at 1µM (percentage of displacement at 1 µM) (CB1R; 1 µM): 31%^23
EC50 (CB2R): 560 nM
percentage of Ki67+ cells (NCI-N87 cells; [12]): 68.3%
ROS production (HGC27-R cells [6]): induced an increase in ROS production

O=C(NC12CC3CC(CC(C3)C1)C2)c1ccccc1OCc1ccccc1 [CC48]
EC50 (P-gp): 7750 ± 1250 nM
interaction with P-gp (in words) (P-gp; MDCK-MDR1 cells, Calcein-AM): moderate interaction with P-gp
VEGFA secretion in culture medium (AGS cells [9]): 5.8 pg/mL/cell
VEGFA secretion in culture medium (HGC27-R cells [10]): 6.5 pg/mL/cell
Ki (CB1R; ± SEM, read-out: CB1R affinity Ki): 241.3 ± 2.4 nM
EC50 (CB2R): 124 nM
percentage of Ki67+ cells (NCI-N87 cells; NCI-N87, cotreatment with PTX, PTX alone 68.1%): 59.9%
percentage of Ki67+ cells (NCI-N87 cells; [12]): 60.9%
percentage of Ki67+ cells (HGC27-R cells [1]): 67.9%
Ki67(+) cells (HGC27-R cells [1]; [13]): 84.00%
Ki67(-) cells (HGC27-R cells [1]; [13]): 16.00%
relative migration rate (untreated cells = 1) (HGC27-S cells [2]): 0.6
relative migration rate (untreated cells = 1) (AGS cells [3]): 0.8
relative migration rate (control cells = 1) (HGC27-R cells [4]): 0.76
intracellular ROS production (HGC27-S cells [5]): significant increase in intracellular ROS production
increase in apoptotic cells compared to untreated cells (Annexin V) (HGC27-S cells [7]): 2 fold
increase in apoptotic cells compared to untreated cells (Annexin V) (AGS cells [8]): 6 fold
